PubChem BioAssay (NCI)
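Growth conditions: 96-well plates. Treatment: test compound, 48 hours, 5 concentrations. Analysis: linear interpolation between bracketing concentrations; unreached endpoints set to highest concentration. GI50: concentration for 50% inhibition of growth. TGI: total growth inhibition.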

Key:
Test in all cases: NCI tumour cell line growth inhibition, 48 h
786-0 renal = tested on: 786-0 renal
A498 renal = tested on: A498 renal
A549 NSCLC = tested on: A549 NSCLC
ACHN renal = tested on: ACHN renal
BT-549 breast = tested on: BT-549 breast
CAKI-1 renal = tested on: CAKI-1 renal
CCRF-CEM leukemia = tested on: CCRF-CEM leukemia
COLO 205 colon = tested on: COLO 205 colon
DU-145 prostate = tested on: DU-145 prostate
HCC-2998 colon = tested on: HCC-2998 colon
HCT-116 colon = tested on: HCT-116 colon
HCT-15 colon = tested on: HCT-15 colon
HL-60(TB) leukemia = tested on: HL-60(TB) leukemia
HOP-62 NSCLC = tested on: HOP-62 NSCLC
HOP-92 NSCLC = tested on: HOP-92 NSCLC
HS 578T breast = tested on: HS 578T breast
HT29 colon = tested on: HT29 colon
IGROV1 ovarian = tested on: IGROV1 ovarian
K-562 leukemia = tested on: K-562 leukemia
KM12 colon = tested on: KM12 colon
LOX IMVI melanoma = tested on: LOX IMVI melanoma
M14 melanoma = tested on: M14 melanoma
MALME-3M melanoma = tested on: MALME-3M melanoma
MCF7 breast = tested on: MCF7 breast
MDA-MB-231 breast = tested on: MDA-MB-231 breast
MDA-MB-435 = tested on: MDA-MB-435
MOLT-4 leukemia = tested on: MOLT-4 leukemia
NCI-H226 lung = tested on: NCI-H226 lung
NCI-H23 lung = tested on: NCI-H23 lung
NCI-H460 lung = tested on: NCI-H460 lung
NCI-H522 lung = tested on: NCI-H522 lung
NCI/ADR-RES ovarian = tested on: NCI/ADR-RES ovarian
OVCAR-3 ovarian = tested on: OVCAR-3 ovarian
OVCAR-4 ovarian = tested on: OVCAR-4 ovarian
OVCAR-5 ovarian = tested on: OVCAR-5 ovarian
OVCAR-8 ovarian = tested on: OVCAR-8 ovarian
PC-3 prostate = tested on: PC-3 prostate
RPMI-8226 leukemia = tested on: RPMI-8226 leukemia
SF-268 CNS = tested on: SF-268 CNS
SF-295 CNS = tested on: SF-295 CNS
SF-539 CNS = tested on: SF-539 CNS
SK-MEL-2 melanoma = tested on: SK-MEL-2 melanoma
SK-MEL-28 melanoma = tested on: SK-MEL-28 melanoma
SK-MEL-5 melanoma = tested on: SK-MEL-5 melanoma
SK-OV-3 ovarian = tested on: SK-OV-3 ovarian
SN12C renal = tested on: SN12C renal
SNB-19 CNS = tested on: SNB-19 CNS
SNB-75 CNS = tested on: SNB-75 CNS
SR leukemia = tested on: SR leukemia
SW-620 colon = tested on: SW-620 colon
T-47D breast = tested on: T-47D breast
TK-10 renal = tested on: TK-10 renal
U251 CNS = tested on: U251 CNS
UACC-257 melanoma = tested on: UACC-257 melanoma
UACC-62 melanoma = tested on: UACC-62 melanoma
UO-31 renal = tested on: UO-31 renal

**Q.** With `CN(C)CCCNCc1ccc(-c2ccc(F)c(Cl)c2)o1` as the compound, how does the GI50 (786-0 renal) read?
**A.** 10.8 µM

**Q.** And the TGI (786-0 renal)?
**A.** 23.7 µM

**Q.** And the GI50 (A498 renal)?
**A.** 3.22 µM

**Q.** And the TGI (A498 renal)?
**A.** 18.7 µM

**Q.** What about the GI50 (A549 NSCLC) of the same compound?
**A.** 16.1 µM

**Q.** And the TGI (A549 NSCLC)?
**A.** 31.8 µM

**Q.** And the GI50 (ACHN renal)?
**A.** 15.9 µM

**Q.** And the TGI (ACHN renal)?
**A.** 32.7 µM

**Q.** And the GI50 (BT-549 breast)?
**A.** 11.8 µM

**Q.** What about the TGI (BT-549 breast) of the same compound?
**A.** 26 µM

**Q.** What about the GI50 (CAKI-1 renal) of the same compound?
**A.** 12.6 µM

**Q.** And the TGI (CAKI-1 renal)?
**A.** 27.3 µM

**Q.** What about the GI50 (CCRF-CEM leukemia) of the same compound?
**A.** 9.71 µM

**Q.** What about the TGI (CCRF-CEM leukemia) of the same compound?
**A.** 26.3 µM

**Q.** What about the GI50 (COLO 205 colon) of the same compound?
**A.** 4.52 µM

**Q.** What about the TGI (COLO 205 colon) of the same compound?
**A.** 15.5 µM

**Q.** What about the GI50 (DU-145 prostate) of the same compound?
**A.** 16.6 µM

**Q.** And the TGI (DU-145 prostate)?
**A.** 30.6 µM

**Q.** And the GI50 (HCC-2998 colon)?
**A.** 13 µM

**Q.** And the TGI (HCC-2998 colon)?
**A.** 25.9 µM

**Q.** What about the GI50 (HCT-116 colon) of the same compound?
**A.** 8.33 µM

**Q.** What about the TGI (HCT-116 colon) of the same compound?
**A.** 25 µM

**Q.** And the GI50 (HCT-15 colon)?
**A.** 12.2 µM

**Q.** What about the TGI (HCT-15 colon) of the same compound?
**A.** 32.4 µM

**Q.** And the GI50 (HL-60(TB) leukemia)?
**A.** 14.1 µM

**Q.** What about the TGI (HL-60(TB) leukemia) of the same compound?
**A.** 30.7 µM

**Q.** And the GI50 (HOP-62 NSCLC)?
**A.** 14.5 µM

**Q.** And the TGI (HOP-62 NSCLC)?
**A.** 28.2 µM

**Q.** What about the GI50 (HOP-92 NSCLC) of the same compound?
**A.** 3.06 µM

**Q.** And the TGI (HOP-92 NSCLC)?
**A.** 20 µM

**Q.** What about the GI50 (HS 578T breast) of the same compound?
**A.** 10.3 µM

**Q.** What about the TGI (HS 578T breast) of the same compound?
**A.** 26.8 µM

**Q.** And the GI50 (HT29 colon)?
**A.** 6.18 µM

**Q.** What about the TGI (HT29 colon) of the same compound?
**A.** 20.4 µM

**Q.** What about the GI50 (IGROV1 ovarian) of the same compound?
**A.** 13.5 µM

**Q.** And the TGI (IGROV1 ovarian)?
**A.** 32.2 µM

**Q.** And the GI50 (K-562 leukemia)?
**A.** 3.06 µM

**Q.** And the TGI (K-562 leukemia)?
**A.** 10.2 µM

**Q.** And the GI50 (KM12 colon)?
**A.** 14.5 µM

**Q.** And the TGI (KM12 colon)?
**A.** 29.2 µM

**Q.** And the GI50 (LOX IMVI melanoma)?
**A.** 5.23 µM

**Q.** And the TGI (LOX IMVI melanoma)?
**A.** 18.2 µM

**Q.** And the GI50 (M14 melanoma)?
**A.** 7.2 µM

**Q.** And the TGI (M14 melanoma)?
**A.** 22 µM

**Q.** What about the GI50 (MALME-3M melanoma) of the same compound?
**A.** 16 µM

**Q.** And the TGI (MALME-3M melanoma)?
**A.** 33.5 µM

**Q.** What about the GI50 (MCF7 breast) of the same compound?
**A.** 10.1 µM

**Q.** And the TGI (MCF7 breast)?
**A.** 23.4 µM

**Q.** And the GI50 (MDA-MB-231 breast)?
**A.** 9.89 µM

**Q.** What about the TGI (MDA-MB-231 breast) of the same compound?
**A.** 22.3 µM

**Q.** What about the GI50 (MDA-MB-435) of the same compound?
**A.** 5.58 µM

**Q.** What about the TGI (MDA-MB-435) of the same compound?
**A.** 20.5 µM

**Q.** And the GI50 (MOLT-4 leukemia)?
**A.** 11.5 µM

**Q.** And the TGI (MOLT-4 leukemia)?
**A.** 28 µM

**Q.** What about the GI50 (NCI-H226 lung) of the same compound?
**A.** 16.8 µM

**Q.** What about the TGI (NCI-H226 lung) of the same compound?
**A.** 35 µM

**Q.** What about the GI50 (NCI-H23 lung) of the same compound?
**A.** 14.7 µM

**Q.** What about the TGI (NCI-H23 lung) of the same compound?
**A.** 31.5 µM

**Q.** What about the GI50 (NCI-H460 lung) of the same compound?
**A.** 14.3 µM

**Q.** What about the TGI (NCI-H460 lung) of the same compound?
**A.** 29.8 µM

**Q.** And the GI50 (NCI-H522 lung)?
**A.** 13.6 µM

**Q.** And the TGI (NCI-H522 lung)?
**A.** 30 µM

**Q.** What about the GI50 (NCI/ADR-RES ovarian) of the same compound?
**A.** 15.7 µM

**Q.** What about the TGI (NCI/ADR-RES ovarian) of the same compound?
**A.** 33.4 µM

**Q.** What about the GI50 (OVCAR-3 ovarian) of the same compound?
**A.** 15.4 µM

**Q.** And the TGI (OVCAR-3 ovarian)?
**A.** 29.8 µM

**Q.** What about the GI50 (OVCAR-4 ovarian) of the same compound?
**A.** 13 µM

**Q.** What about the TGI (OVCAR-4 ovarian) of the same compound?
**A.** 35.8 µM

**Q.** What about the GI50 (OVCAR-5 ovarian) of the same compound?
**A.** 15.5 µM

**Q.** What about the TGI (OVCAR-5 ovarian) of the same compound?
**A.** 33.6 µM

**Q.** And the GI50 (OVCAR-8 ovarian)?
**A.** 16.2 µM

**Q.** And the TGI (OVCAR-8 ovarian)?
**A.** 36.5 µM

**Q.** And the GI50 (PC-3 prostate)?
**A.** 12.2 µM

**Q.** And the TGI (PC-3 prostate)?
**A.** 26.5 µM

**Q.** And the GI50 (RPMI-8226 leukemia)?
**A.** 10.7 µM

**Q.** And the TGI (RPMI-8226 leukemia)?
**A.** 29.9 µM

**Q.** And the GI50 (SF-268 CNS)?
**A.** 12.1 µM

**Q.** And the TGI (SF-268 CNS)?
**A.** 24.8 µM

**Q.** And the GI50 (SF-295 CNS)?
**A.** 14.3 µM

**Q.** What about the TGI (SF-295 CNS) of the same compound?
**A.** 31.2 µM

**Q.** And the GI50 (SF-539 CNS)?
**A.** 12.9 µM

**Q.** What about the TGI (SF-539 CNS) of the same compound?
**A.** 27.9 µM

**Q.** What about the GI50 (SK-MEL-2 melanoma) of the same compound?
**A.** 15.9 µM

**Q.** What about the TGI (SK-MEL-2 melanoma) of the same compound?
**A.** 31.2 µM

**Q.** And the GI50 (SK-MEL-28 melanoma)?
**A.** 10.2 µM

**Q.** And the TGI (SK-MEL-28 melanoma)?
**A.** 22.1 µM

**Q.** And the GI50 (SK-MEL-5 melanoma)?
**A.** 3.69 µM

**Q.** And the TGI (SK-MEL-5 melanoma)?
**A.** 13.9 µM

**Q.** And the GI50 (SK-OV-3 ovarian)?
**A.** 16.9 µM

**Q.** What about the TGI (SK-OV-3 ovarian) of the same compound?
**A.** 31.1 µM

**Q.** What about the GI50 (SN12C renal) of the same compound?
**A.** 12.1 µM

**Q.** What about the TGI (SN12C renal) of the same compound?
**A.** 26.6 µM

**Q.** And the GI50 (SNB-19 CNS)?
**A.** 15.3 µM

**Q.** What about the TGI (SNB-19 CNS) of the same compound?
**A.** 32.8 µM

**Q.** And the GI50 (SNB-75 CNS)?
**A.** 1.23 µM

**Q.** And the TGI (SNB-75 CNS)?
**A.** 18.1 µM

**Q.** What about the GI50 (SR leukemia) of the same compound?
**A.** 2.96 µM

**Q.** What about the TGI (SR leukemia) of the same compound?
**A.** 8.37 µM

**Q.** And the GI50 (SW-620 colon)?
**A.** 14 µM

**Q.** And the TGI (SW-620 colon)?
**A.** 30.3 µM

**Q.** And the GI50 (T-47D breast)?
**A.** 11.8 µM

**Q.** What about the TGI (T-47D breast) of the same compound?
**A.** 28.3 µM

**Q.** And the GI50 (TK-10 renal)?
**A.** 16.3 µM

**Q.** And the TGI (TK-10 renal)?
**A.** 31.5 µM

**Q.** What about the GI50 (U251 CNS) of the same compound?
**A.** 14.4 µM

**Q.** And the TGI (U251 CNS)?
**A.** 30.7 µM

**Q.** What about the GI50 (UACC-257 melanoma) of the same compound?
**A.** 3.81 µM

**Q.** What about the TGI (UACC-257 melanoma) of the same compound?
**A.** 13.8 µM

**Q.** What about the GI50 (UACC-62 melanoma) of the same compound?
**A.** 1.88 µM

**Q.** And the TGI (UACC-62 melanoma)?
**A.** 3.79 µM

**Q.** And the GI50 (UO-31 renal)?
**A.** 12.3 µM

**Q.** What about the TGI (UO-31 renal) of the same compound?
**A.** 26.9 µM
